# Laboratory results from ChEMBL document CHEMBL2074289, “Inhibition of the human organic anion transporter 1 by the caffeine metabolite 1-methylxanthine” (Biochem Biophys Res Commun, 2004).
# Target: T1, OAT1 (Solute carrier family 22 member 6, SLC22A6) (Homo sapiens, UniProt Q4U2R8)
# T1 sequence (Q4U2R8 whole entry): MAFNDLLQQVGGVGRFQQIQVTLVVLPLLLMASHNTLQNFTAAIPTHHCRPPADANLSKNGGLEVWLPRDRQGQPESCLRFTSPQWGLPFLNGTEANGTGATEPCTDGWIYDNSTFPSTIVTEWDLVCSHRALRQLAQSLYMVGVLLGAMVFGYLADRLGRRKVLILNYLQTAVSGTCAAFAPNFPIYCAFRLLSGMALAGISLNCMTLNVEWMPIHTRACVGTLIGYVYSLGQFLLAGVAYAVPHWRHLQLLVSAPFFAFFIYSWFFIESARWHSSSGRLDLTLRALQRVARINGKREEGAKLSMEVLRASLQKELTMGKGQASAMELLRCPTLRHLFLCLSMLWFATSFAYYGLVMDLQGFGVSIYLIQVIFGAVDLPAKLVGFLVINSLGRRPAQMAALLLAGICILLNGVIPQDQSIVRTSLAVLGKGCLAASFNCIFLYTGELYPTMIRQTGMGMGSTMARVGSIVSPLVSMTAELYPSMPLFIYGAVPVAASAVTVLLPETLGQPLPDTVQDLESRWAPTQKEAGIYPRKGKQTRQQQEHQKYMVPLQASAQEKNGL
# Assay: TP_TRANSPORTER: inhibition of 6-Carboxyfluorescein uptake by 1-methylxanthine at a concentration of 500uM in OAT1-expressing cell
# Assay type: functional
# Set-up: scale not given: the % may be the effect or the level left
# Settings: OAT1-expressing cells, probe 6-Carboxyfluorescein; read-out: Activity
smiles,measurement,value
Cn1c(=O)[nH]c2nc[nH]c2c1=O [1-METHYLXANTHINE],activity at 500 µM,50%
